Results: patent US20080280953A1, “Agents Used for the Treatment of Seeds” (Bayer Cropscience AG, priority 2004, published 2008)

Assays:
Assay type in all cases: in vivo
[1] = system: larvae of the corn root worm (Diabrotica balteata); experiment: Diabrotica balteata larvae test (soil application); conditions: 8 ppm in soil, maize
Description: (§1) To prepare a suitable active compound preparation 1 part by weight of the active compound is mixed with the given amount of solvent and emulsifier and the concentrate is diluted to the desired concentration with water.
The active compound mixture was mixed with soil. The concentration given refers to amount of active compound per volume unit of earth (mg/l=ppm). Pots are filled with the treated earth and planted with 5 maize seeds per pot. 3 days after seeding larvae of the corn root worm (Diabrotica balteata) were placed in the treated soil.
After the desired time the death rate in % is determined. The level of activity is determined by the number of emerging plants

[2] = system: mealy cabbage aphid (Brevicoryne brassicae); experiment: Brevicoryne brassicae test, open land (spray treatment), Example J1; conditions: 300 g/ha, spray on cabbage plants
Description: (§2) To prepare a suitable active compound preparation 1 part by weight of the active compound is mixed with the given amount of water to the desired concentration.
Cabbage plants (Brassica oleracea) that are infested with all stages of the mealy cabbage aphid (Brevicoryne brassicae) are sprayed with an active compound preparation at the desired concentration.
(§3) After the desired time the death rate in % is determined. Here 100% means that all aphids were killed; 0% means that no aphids were killed.

[3] = system: white fly (Bemisia tabaci), all stages; experiment: Bemisia tabaci test, open land (spray treatment); conditions: 300 g/ha, spray on paprika plants
Description: as §2
Paprika plants (Capsicum annuum) that are infested with all stages of the white fly (Bemisia tabaci) are sprayed with an active compound preparation at the desired concentration.
After the desired time the death rate in % is determined. Here 100% means that all white fly were killed; 0% means that no white fly were killed.

[4] = system: bird cherry-oat aphid (Rhopalosiphon padi); experiment: Rhopalosiphon padi test (seed application); conditions: 1.4 g ai/kg, barley seed treatment
Description: as §1
Barley seed (Hordeum vulgare) is treated with the active compound preparation and sown into the soil. After about 1 week the barley plants are infected with the bird cherry-oat aphid (Rhopalosiphon padi).
as §3

[5] = system: green leaf hopper (Nephotettix sp.); experiment: Nephotettix sp. test, open land (spray treatment); conditions: 300 g/ha, spray on rice plants
Description: as §2
Rice plants (Oryza sativa) that are infested with all stages of the green leaf hopper (Nephotettix sp.) are sprayed with an active compound preparation at the desired concentration.
After the desired time the death rate in % is determined. Here 100% means that all leaf hoppers were killed; 0% means that no leaf hoppers were killed.

Lucilia cuprina larvae = experiment: Fly larvae test; conditions: 100 ppm
Description: 10 mg active compound were dissolved in 0.5 ml dimethylsulphoxide. To prepare a suitable formulation the active compound solution is diluted with water to the respective desired concentration.
About 20 Lucilia cuprina larvae are placed in a test tube that contains ca. 1 cm^3 horse flesh and 0.5 ml of the active compound preparation under test.
(§4) After the desired time the death rate in % is determined. Here 100% means that all larvae were killed; 0% means that no larvae were killed.

[6] = system: termites (Odontotermes sp.); experiment: Odontotermes test, open land (spray treatment); conditions: 240 g/ha, spray on obeche wood
Description: as §2
Areas of wood of the obeche tree (Triplochiton scleroxylon) are treated by spraying with the active compound preparation at the desired concentration and infected with termites (Odontotermes sp.).
After the desired time the activity in % is determined. Here 100% means that the wood was not infested by termites; 0% means that the wood was infested by termites.

[7] = system: larvae of the Colorado beetle (Leptinotarsa decemlineata); experiment: Leptinotarsa decemlineata larvae test, spraying of potato leaves; conditions: 60 g ai/ha, spray on potato leaves
Description: (§5) To prepare a suitable active compound preparation 1 part by weight of the active compound is mixed with the given amount of solvent and emulsifier and the concentrate is diluted to the desired concentration with water containing emulsifier.
Leaves of potato plants (Solanum tuberosum) that are infested with the larvae of the Colorado beetle (Leptinotarsa decemlineata) are treated by spraying with the active compound preparation at the desired concentration.
After the desired time the activity in % is determined. Here 100% means that all beetle larvae were killed; 0% means that no beetle larvae were killed.

[8] = system: green peach aphid (Myzus persicae); experiment: Myzus persicae test (soil application); conditions: 4 ppm in soil, pepper plant
Description: as §1
The active compound mixture was mixed with soil. The concentration given refers to amount of active compound per volume unit of earth (mg/l=ppm). Pots are filled with the treated earth and planted with a pepper plant (Capsicum annuum). After a week they are infected with the green peach aphid (Myzus persicae).
as §3

[9] = system: white fly (Bemisia tabaci) eggs and larvae; experiment: Bemisia tabaci test, treated soil (Example Z); conditions: 4 ppm in soil, cotton plant
Description: as §1
The active compound preparation is mixed with earth. The concentration given relates to the amount of active compound per volume unit soil (mg/l=ppm). The treated earth is filled into pots and planted with a cotton plant (Gossypium hirsutum). After a week infection is carried out with white fly (Bemisia tabaci) for egg deposition.
After the desired time the death rate of eggs and larvae, respectively, in % is determined. Here 100% means that all animals were killed; 0% means that no animals that were killed.

[10] = system: onion thrips (Thrips tabaci); experiment: Thrips tabaci test, open land (spray treatment); conditions: 300 g/ha, spray on onions
Description: as §2
Onions (Allium cepa) that are infested with all stages of the onion thrips (Thrips tabaci) are sprayed with an active compound preparation at the desired concentration.
After the desired time the death rate in % is determined. Here 100% means that all thrips were killed; 0% means that no thrips were killed.

[11] = system: codling moth larvae (Cydia pomonella); experiment: Cydia pomonella test, treated feed; conditions: 20 ppm in feed
Description: as §1
The active compound preparation was mixed with feed. The concentration given relates to the amount of active compound per unit volume feed (mg/l=ppm). The treated feed is placed in Petri dishes and infected with codling moth larvae (Cydia pomonella).
as §4

[12] = system: horse chestnut scale (Pulvinaria regalis); experiment: Pulvinaria regalis test, spraying of chestnut trees (Example B1); conditions: 100 ppm, spray on chestnut trees
Description: as §5
Chestnut trees (Castaney vesca) that are infested with horse chestnut scale (Pulvinaria regalis) are treated by spraying with the active compound preparation at the desired concentration.
After the desired time the death rate in % is determined. Here 100% means that all animals were killed; 0% means that no animals were killed.

[13] = system: mealy cabbage aphid (Brevicoryne brassicae); experiment: Brevicoryne brassicae test, open land (drench application); conditions: 0.04 g/plant, drench on cabbage plants
Description: as §2
Cabbage plants (Brassica oleracea) that are infested with all stages of the mealy cabbage aphid (Brevicoryne brassicae) are drenched with an active compound preparation at the desired concentration.
as §3

[14] = system: brown plant hopper (Nilaparvata lugens); experiment: Nilaparvata lugens test, open land (spray treatment); conditions: 300 g/ha, spray on rice plants
Description: as §2
Rice plants (Oryza sativa) that are infested with all stages of the brown plant hopper (Nilaparvata lugens) are sprayed with an active compound preparation at the desired concentration.
After the desired time the death rate in % is determined. Here 100% means that all plant hoppers were killed; 0% means that no plant hoppers were killed.

CN(Cc1ccc(Cl)nc1)C1=CC(=O)OC1 [Compound 84]
Activity in % after 4 d [1]: 100% | death rate after 22 days [2]: 99% | death rate after 65 days [3]: 93% | Activity in % after 7 d [4]: 100% | death rate after 15 days [5]: 98% | death rate after 2 days (Lucilia cuprina larvae): 100% | activity after 45 days ([6]; after 45 days): 99% | Activity in % after 6 d [7]: 100% | Activity in % after 7 d [8]: 100% | death rate after 14 days [9]: 100% | death rate after 14 days [10]: 89% | death rate after 7 days [11]: 100% | death rate after 30 days [12]: 100% | death rate after 35 days [13]: 100% | death rate after 14 days [14]: 91%

O=C1C=C(N(Cc2ccc(Cl)nc2)C2CC2)CO1 [Compound 88]
Activity in % after 4 d [1]: 90% | death rate after 22 days [2]: 99% | death rate after 65 days [3]: 93% | Activity in % after 7 d [4]: 100% | death rate after 15 days [5]: 99% | death rate after 2 days (Lucilia cuprina larvae): 100% | activity after 65 days ([6]; after 65 days): 95% | Activity in % after 6 d [7]: 100% | Activity in % after 7 d [8]: 100% | death rate after 14 days [9]: 100% | death rate after 14 days [10]: 98% | death rate after 7 days [11]: 90% | death rate after 30 days [12]: 95% | death rate after 35 days [13]: 97% | death rate after 14 days [14]: 99%
